Test results reported in patent publication US9745348B2 (The University of Manchester, priority 2011, dated 2017).
pIC50: −log10 of the molar value. Where a SMILES comes first, the peptide text is derived from it. [ ]: non-standard residue; d: D form. Orn = NCCC[C@H](N)C(=O)O

What was measured:
E. coli, (EC) = test: Bacterial growth by optical density, peptides with or without surfactants; type: cell-based, Escherichia coli
Protocol: Bacteria E. coli, (EC) and S. aureus, (SA) were grown in LB media at 37° C. with continuous shaking for 24 hours. The bacterial concentration was then adjusted such that the absorbance at 600 (A600) was controlled to ca 0.2 unit. The bacteria suspensions with the peptides were incubated in 96-well tissue culture plates. The total medium volume in each well was […]. […] Controls with media only and media with bacteria only were run alongside the peptide bacteria mixed suspensions. Measurements were taken at time t=0, t=20 and t=72 hours using optical density cell plate reader. The optical density (OD) is representative of the relative amount of bacterial growth within the medium.
The antibacterial activities of the designed short peptides in the presence of selected surfactants were investigated to determine if the peptides would sustain their antibacterial performance when surfactants are present. Bacteria E. coli, (EC) and S. aureus, (SA) were grown in LB media at 37° C. with continuous shaking for 24 hours. The bacterial concentrations were then adjusted such that the absorbance at 600 (A600) was controlled to ca 0.2 unit. The bacteria suspensions with the peptides were incubated in 96-well tissue culture plates. The total medium volume in each well was […]. […] Controls used were (i) media only, (ii) media with bacteria only and (iii) bacteria with media containing peptides at a particular concentration. These were run alongside the peptide+bacteria and selected surfactant mixed suspensions. Measurements were taken at time t=0, t=20 and t=72 hours using optical density cell plate reader. Surfactants were added such that the final concentration was 1% within the wells.

[1] = tested on: HeLa and HL60 cancer cell lines; conditions: 24 h
Protocol: Antitumor activities of peptides were measured using the 3-(4,5-dimethylthiazol-2-yl)-2,-diphenyl tetrazolium bromide (MTT) assay, and the IC50 value was calculated as the concentration of peptide that induced 50% growth inhibition compared to the untreated control.
HeLa and HL60 cells were seeded in 96-well plates (10^5 cells/well) in a complete medium [Iscove's modified dulbecco's medium (IMDM)] with 10% fetal bovine serum (FBS) for 24 h before peptide treatment. […] Following incubation with peptides, 20 μL of a 5 mg/ml solution MTT reagent was added to each well and incubated for 4 h at 37° C. After removing the supernatant, 150 μL of dimethyl sulfoxide (DMSO) was added to dissolve the formazan crystals that remained in the wells. The absorbance was determined using a microplate ELISA Reader at 570 nm. Wells without cells for blanking the spectrophotometer and the cells without peptides were taken as negative controls.

[2] = MTT viability of fibroblasts over three days; type: cell-based, human; conditions: human, adult fibroblasts (HDFa cells)
Protocol: (§1) MTT assay: Cell viability and proliferation is widely assessed by the MTT assay as already described previously.
(§2) The fibroblasts cells, Neonatal (HDFn) and Adult (HDFa), were both grown until greater than 80% confluent. […] After 24 hour incubation the culture medium was replaced with fresh medium containing an appropriate amount of the peptide for investigation.
(§3) The viability of the fibroblasts, Adult (HDFa) and Neonatal (HDFn) cells in the presence of surfactants was tested by MTT assay over three days relative to control wells containing cells only.

in vitro = type: cell-based; conditions: human, neonatal fibroblasts (HDFn cells)
Protocol: as §1
The fibroblasts cells, Neonatal (HDFn) and Adult (HDFa), were both grown until greater than 80% confluent. The cells were then harvested and seeded into micro well plate at cell densities of 5000 cells/well in a volume […] of medium. After 24 hour incubation the culture medium was replaced with fresh medium containing an appropriate amount of the peptide for investigation.

[3] = tested on: fibroblasts Adult (HDFa) cells; test: MTT viability of fibroblasts over three days; type: cell-based, human
Protocol: as §1, §2, §3

CC1(C)S[C@@H]2[C@H](NC(=O)[C@H](N)c3ccccc3)C(=O)N2[C@H]1C(=O)O [Ampicillin, ampicillin]
bacterial growth (optical density) (E. coli, (EC); T = 0 HOUR, NO SURF, 25 μM): 0.20 | bacterial growth (optical density) (E. coli, (EC); T = 0 HOUR, NO SURF, 50 μM): 0.20 | bacterial growth (optical density) (E. coli, (EC); T = 0 HOUR, NO SURF, 100 μM): 0.19 | bacterial growth (optical density) (E. coli, (EC); T = 0 HOUR, with 1% C12TAB, 25 μM): 0.27 | bacterial growth (optical density) (E. coli, (EC); T = 0 HOUR, with 1% C12TAB, 50 μM): 0.26 | bacterial growth (optical density) (E. coli, (EC); T = 0 HOUR, with 1% C12TAB, 100 μM): 0.27 | bacterial growth (optical density) (E. coli, (EC); T = 0 HOUR, with 1% F127, 25 μM): 0.20 | bacterial growth (optical density) (E. coli, (EC); T = 0 HOUR, with 1% F127, 50 μM): 0.20 | bacterial growth (optical density) (E. coli, (EC); T = 0 HOUR, with 1% F127, 100 μM): 0.17 | bacterial growth (optical density) (E. coli, (EC); T = 0 HOUR, with 1% Mx, 25 μM): 0.21 | bacterial growth (optical density) (E. coli, (EC); T = 0 HOUR, with 1% Mx, 50 μM): 0.20 | bacterial growth (optical density) (E. coli, (EC); T = 0 HOUR, with 1% Mx, 100 μM): 0.20 | bacterial growth (optical density) (E. coli, (EC); T = 0 HOUR, with 1% SLES, 25 μM): 0.22 | bacterial growth (optical density) (E. coli, (EC); T = 0 HOUR, with 1% SLES, 50 μM): 0.18 | bacterial growth (optical density) (E. coli, (EC); T = 0 HOUR, with 1% SLES, 100 μM): 0.15 | bacterial growth (optical density) (E. coli, (EC); T = 0 HOUR, with 1% Tt, 25 μM): 0.22 | bacterial growth (optical density) (E. coli, (EC); T = 0 HOUR, with 1% Tt, 50 μM): 0.15 | bacterial growth (optical density) (E. coli, (EC); T = 0 HOUR, with 1% Tt, 100 μM): 0.14 | bacterial growth (optical density) (E. coli, (EC); T = 20 HOUR, NO SURF, 25 μM): 0.20 | bacterial growth (optical density) (E. coli, (EC); T = 20 HOUR, NO SURF, 50 μM): 0.16 | bacterial growth (optical density) (E. coli, (EC); T = 20 HOUR, NO SURF, 100 μM): 0.16 | bacterial growth (optical density) (E. coli, (EC); T = 20 HOUR, with 1% C12TAB, 25 μM): 0.27 | bacterial growth (optical density) (E. coli, (EC); T = 20 HOUR, with 1% C12TAB, 50 μM): 0.26 | bacterial growth (optical density) (E. coli, (EC); T = 20 HOUR, with 1% C12TAB, 100 μM): 0.26 | bacterial growth (optical density) (E. coli, (EC); T = 20 HOUR, with 1% F127, 25 μM): 0.15 | bacterial growth (optical density) (E. coli, (EC); T = 20 HOUR, with 1% F127, 50 μM): 0.13 | bacterial growth (optical density) (E. coli, (EC); T = 20 HOUR, with 1% F127, 100 μM): 0.14 | bacterial growth (optical density) (E. coli, (EC); T = 20 HOUR, with 1% Mx, 25 μM): 0.32 | bacterial growth (optical density) (E. coli, (EC); T = 20 HOUR, with 1% Mx, 50 μM): 0.28 | bacterial growth (optical density) (E. coli, (EC); T = 20 HOUR, with 1% Mx, 100 μM): 0.25 | bacterial growth (optical density) (E. coli, (EC); T = 20 HOUR, with 1% SLES, 25 μM): 0.08 | bacterial growth (optical density) (E. coli, (EC); T = 20 HOUR, with 1% SLES, 50 μM): 0.08 | bacterial growth (optical density) (E. coli, (EC); T = 20 HOUR, with 1% SLES, 100 μM): 0.06 | bacterial growth (optical density) (E. coli, (EC); T = 20 HOUR, with 1% Tt, 25 μM): 0.09 | bacterial growth (optical density) (E. coli, (EC); T = 20 HOUR, with 1% Tt, 50 μM): 0.07 | bacterial growth (optical density) (E. coli, (EC); T = 20 HOUR, with 1% Tt, 100 μM): 0.07

CC[C@H](C)[C@H](NC(=O)[C@H](CCCN)NC(=O)[C@H](CCCN)NC(=O)[C@@H](NC(=O)[C@@H](NC(=O)[C@H](CCCN)NC(=O)[C@H](CCCN)NC(=O)[C@@H](NC(=O)[C@@H](NC(=O)[C@H](CCCN)NC(=O)[C@H](CCCN)NC(=O)[C@@H](NC(=O)[C@@H](NC(=O)CN)[C@@H](C)CC)[C@@H](C)CC)[C@@H](C)CC)[C@@H](C)CC)[C@@H](C)CC)[C@@H](C)CC)C(N)=O [GO, G(IIOO)3 I-NH2] (H-GII[Orn][Orn]II[Orn][Orn]II[Orn][Orn]I-NH2)
pIC50 [1]: 4.60 to 5.40 | viability at 24 h, 5 µM [2]: 101% | viability at 24 h, 25 µM [2]: 98% | viability at 24 h, 50 µM [2]: 95% | viability at 24 h, 100 µM [2]: 88% | viability at 48 h, 5 µM [2]: 95% | viability at 48 h, 25 µM [2]: 92% | viability at 48 h, 50 µM [2]: 83% | viability at 48 h, 100 µM [2]: 75% | viability at 72 h, 5 µM [2]: 90% | viability at 72 h, 25 µM [2]: 82% | viability at 72 h, 50 µM [2]: 78% | viability at 72 h, 100 µM [2]: 70% | viability at 24 h, 5 µM (in vitro): 95% | viability at 24 h, 25 µM (in vitro): 91% | viability at 24 h, 50 µM (in vitro): 88% | viability at 24 h, 100 µM (in vitro): 83% | viability at 48 h, 5 µM (in vitro): 91% | viability at 48 h, 25 µM (in vitro): 85% | viability at 48 h, 50 µM (in vitro): 81% | viability at 48 h, 100 µM (in vitro): 75% | viability at 72 h, 5 µM (in vitro): 85% | viability at 72 h, 25 µM (in vitro): 80% | viability at 72 h, 50 µM (in vitro): 75% | viability at 72 h, 100 µM (in vitro): 65%

CCCCCCCCCCCCOCCOCCOCCOCCOCCO [Helix C12E5, Pentaethylene glycol monododecyl ether]
MTT results (relative MTT reading) ([3]; human, 1 day, 0.5 %): 0.01 | MTT results (relative MTT reading) ([3]; human, 2 day, 0.5 %): 0.01 | MTT results (relative MTT reading) ([3]; human, 3 day, 0.5 %): 0.01

CCCCCCCCCCCCOCCOCCOCCOCCOCCOCCO [Helix C12E6, Hexaethylene glycol monododecyl ether]
MTT results (relative MTT reading) ([3]; human, 1 day, 1 %): 0.01 | MTT results (relative MTT reading) ([3]; human, 2 day, 1 %): 0.01 | MTT results (relative MTT reading) ([3]; human, 3 day, 1 %): 0.01

CCCCCCCCCCCCOS(=O)(=O)[O-].[Na+] [SDS, Sodium dodecyl sulphate]
MTT results (relative MTT reading) ([3]; HDFa, surfactant 1%, Day 1): 0.01 | MTT results (relative MTT reading) ([3]; HDFa, surfactant 1%, Day 2): 0.01 | MTT results (relative MTT reading) ([3]; HDFa, surfactant 1%, Day 3): 0.01
